Source: patent US20130296344A1, “CHROMENE DERIVATIVES AND THEIR ANALOGA AS WNT PATHWAY ANTAGONISTS” (Ruprecht-Karls-Universitat Heidelberg, priority 2010, published 2013)
Read-outs that look alike come from different tables or passages of the source.

Assays:
[1] = system: SW480 colon carcinoma cells; assay: Antiproliferative activity against SW480 colon carcinoma cells (nuclei count); format: cell-based; details: Homo sapiens, 5 nM-90 microM
Procedure: (§1) For examination of cell line-specific cytotoxicity, compounds were applied to human colorectal cancer cells (HCT116, denoted (1); SW480, denoted (2); Dld-1, denoted (3)) and human fibroblasts (HS-68, denoted (4)), cultured in Mc Coy's ((1)) and Dulbecco's Modified Eagles Medium ((2)-(4)), supplemented with 10% ((1)-(3)) and 20% ((4)) fetal calf serum and 1% penicillin/streptomycin. Cells were grown in T75 flasks at 37° C., 5% CO2 and trypsinized when 60-80% confluent by adding 2 ml of 0.25% Trypsin-EDTA (ethylenediaminetetraacetic acid) solution. Cells were then re-suspended into culture medium yielding approx. 750 cells, suspended in 45 microl medium, were plated into each well of a black 384-well plate for fluorescence imaging experiments. 24-36 hr later 5 microl compound solution (100 microM compound dissolved in ultra pure water containing 1% DMSO (dimethylsulfoxide)), were added to achieve a final concentration of 10 microM and were incubated for at least 72 hr. Compound incubation was terminated by (a) fixation and (b) permeabilisation of cells, followed by (c) fluorescence labeling of cell nuclei for cytometric quantification or by immunocytochemistry for microscopic evaluation of cell morphology. […] Solutions were incubated for 15 (a,b) and 30 min (c) in the dark at room temperature. Cells were washed twice between each step with 30 microl PBS. The assay system was miniaturized and adapted to automated workflow using liquid-handling robotics.
(§2) Cell line-specific cytotoxicity was quantified by counting the number of Hoechst labeled nuclei per well of a 384-well plate using a plate cytometer. Data obtained with the cytometer was analysed using standard data analysis software.
(§3) The examination of the antiproliferative activity against human colon carcinoma cells Dld1, HCT116 and SW480 was carried out in analogy to the procedure carried out for HS68. The respective compound applied in increasing concentrations yielding final concentrations per well of 5 nM-90 microM.

Wnt pathway (Wnt1/Frzd8) = assay: Wnt signaling pathway reporter gene assay (6xTCF-luciferase, Wnt1/Frizzled 8/LRP6 stimulated Hek293T cells); format: cell-based, mouse (Wnt1, human (LRP6); details: Homo sapiens, HEK-293T, Hek293T, 6xTCF-luciferase reporter, 24 h incubation, 5 nM-100 microM, read-out: Wnt1/Frzd8 IC50 (Wnt pathway inhibitory activity)
Description: To screen for small-molecule modulators of the Wnt signaling pathway, a reporter gene based assay describing the modulation of the TCF4 transcription factor was used. […]

[2] = Cytotoxicity in HepG2 (CellTiterGlo); format: cell-based; details: human, HepG2 cells, 24 h after compound addition, 5 nM-100 microM, read-out: HepG2 IC50 (cytotoxic activity)
Procedure: (§4) For examination of cytotoxicity in these cancer cell lines the commercial available CellTiterGlo® Reagent (Promega, USA) was used according to the manufactor. Compounds were applied to Hek293T (denoted (a)) or HepG2 (denoted (b)), cultured in Dulbecco's Modified Eagles Medium, supplemented with 10% fetal calf serum and 1% penicillin/streptomycin. Cells were grown in T75 flasks at 37° C., 5% CO2 and trypsinized when 60-80% confluent by adding 2 ml of 0.25% Trypsin-EDTA solution. Cells were then re-suspended into culture medium yielding approx. 4000 cells (a) or 4500 cells (b), suspended in 30 microl medium. 48 h after cell seeding, compounds were added to yield the desired final concentrations. 24 h after compound addition cytotoxicity was evaluated. For this purpose the media was removed and CellTiterGlo® was added according to the manufactors manual. In this assay the luciferase emission readout is directly correlated with the cellular amount of ATP, low luciferase emission thus is reflecting cytotoxicity of a compound.

[3] = system: human fibroblasts (HS-68); assay: Cell line specific cytotoxicity, normal cells HS68 (nuclei count); format: cell-based; details: at least 72 hr incubation, Hoechst nuclei count, read-out: HS68 IC50 (influence on normal cells)
Procedure: as §1, §2
Identified hits were further evaluated by visual inspection of fluorescence micrographs obtained from imaging using a conventional fluorescence microscope.

[4] = system: Dld1 colon carcinoma cells; assay: Antiproliferative activity against Dld1 colon carcinoma cells (nuclei count); format: cell-based, human; details: Homo sapiens, DLD-1; colon carcinoma cells, 5 nM-90 microM, nuclei count; read-out: Dld1 IC50
Procedure: as §1, §2, §3

[5] = system: HCT116 colon carcinoma cells; assay: Antiproliferative activity against HCT116 colon carcinoma cells (nuclei count); format: cell-based, human; details: Homo sapiens, HCT-116; colon carcinoma cells, 5 nM-90 microM, nuclei count; read-out: HCT116 IC50
Procedure: as §1, §2, §3

[6] = Cytotoxicity in Hek293T (CellTiterGlo); format: cell-based; details: human, Hek293T cells, 24 h after compound addition, 5 nM-100 microM, read-out: Hek293T IC50 (cytotoxic activity)
Procedure: as §4

Row | IC50 (Wnt pathway (Wnt1/Frzd8); 24 h) [nM] | SMILES | IC50 [1] [nM] | IC50 (Wnt pathway (Wnt1/Frzd8)) [nM] | IC50 at 24 h [2] [nM] | IC50 [3] [nM] | IC50 [4] [nM] | IC50 [5] [nM] | IC50 at 24 h [6] [nM]
1 | – | C=CCOc1c(Br)cc(C2C(C#N)=C(N)Oc3cc4c(cc32)OCO4)cc1OC (centres unmarked) [(41), 8-(4-Allyloxy-3-bromo-5-methoxy-phenyl)-6-amino-8H-[1,3]dioxolo[4,5-g]chromene-7-carbonitrile] | 618 | 45 | > 90000 | 641 | 470 | 551 | > 90000
2 | 55 | C=CCOc1c(Br)cc(C2C(C(=O)OCC)=C(N)Oc3cc4c(cc32)OCO4)cc1OC (centres unmarked) [(42), 8-(4-Allyloxy-3-bromo-5-methoxy-phenyl)-6-amino-8H-[1,3]dioxolo[4,5-g]chromene-7-carboxylic acid ethyl ester] | 343 | – | > 90000 | 469 | 293 | 250 | > 90000
